US20220313670A1, “Methods Of Treating Fabry Disease In Patients Having Renal Impairment” (Amicus Therapeutics, Inc., priority 2019, published 2022)
Where “and” joins values, the source holds several entries; their conditions need not be identical. Equal entries are not always repeated. Where two headings read alike, the source gives them in different places.

Key:
[1] = Pharmacokinetics of migalastat HCl in a Fabry patient with severe renal impairment (P3, 2004-5029; Example 6); assay type: in vivo, human
Description: Migalastat levels can be measured via methods known in the art. […] Microcentrifuge tubes containing 100 μl of the tissue homogenate or 50 μl of plasma may then be spiked with 500 ng/mL 13C d2-AT1001 HCl internal standard (manufactured by MDS Pharma Services). A 600 μl volume of 5 mM HCl in 95/5 MeOH:H2O can then be added and the tubes vortexed for 2 minutes, followed by centrifugation at 21000×g for 10 minutes at room temperature. The supernatants may then be collected into a clean, 96-well plate, diluted with 5 mM HCl in dH2O and applied to a 96-well solid phase extraction (SPE) plate (Waters Corp., Milford Mass.). […] The liquid chromatography can be conducted using an ACN:water:formate binary mobile phase system (mobile phase A: 5 mM ammonium formate, 0.5% formic acid in 95:5 ACN:water; mobile phase B: 5 mM ammonium formate, 0.5% formic acid in 5:47.5:47.5 ACN:MeOH:water) with a flow rate of 0.7 mL/minute on an Halo HILIC column (150×4.6 mm, 2.7 μm) (Advanced Materials Technology, Inc.). MS/MS analysis may be carried out under APCi positive ion mode. The same procedure may be followed for migalastat determination in plasma except without homogenization. […] A 12-point calibration curve and quality control samples may be prepared. […] To derive approximate molar concentrations, one gram of tissue may be estimated as one mL of volume.
PK data was collected every three months.

[2] = Multiple dose simulations (2-compartment model, WinNonlin) on the renal impairment subjects of Example 1; parameters: species or system human; conditions: ratio to AUCPPK
Text: This example provides computer simulations of dosing the renal impairment subjects of Example 1. The key assumption was exposure characterized in non-Fabry subjects with renal impairment is the same as in Fabry patients with renal impairment. The software program was WinNonlin version 5.2 or higher. […] Steady state was assumed by 7th dose. […] QOD (every other day or 48 hrs), Q3D (every 3rd day or 72 hrs), Q4D (every 4th day or 96 hrs), and Q7D (every 7th day/once a week or 168 hrs). A 2-compartment model was used to estimate volume of distribution (Vd) and elimination rate constants from single dose data. These estimates were inputted into each molecular dose simulation regimen.

[3] = cited from earlier work; for Mean percent of the dose recovered in urine: single ascending dose (SAD) study
[4] = FACETS (011) population PK from sparse blood sampling in Fabry patients; assay type: in vivo, human; conditions: for Comparison to FACETS PPK (migalastat concentration): Fabry patients of FACETS
Text: One or more of the dosing regimens described herein are particularly suitable for Fabry patients who have some degree of renal impairment. […] FACETS (011, NCT00925301) was a 24-month trial, including a 6-month double-blind, placebo-controlled period, in 67 enzyme replacement therapy (ERT)-naive patients. ATTRACT (012, NCT01218659) was an active-controlled, 18-month trial in 57 ERT-experienced patients with a 12-month open-label extension (OLE). Both the FACETS and ATTRACT studies included patients having an estimated glomerular filtration rate (eGFR) of ≥30 ml/min/1.73 m^2. Accordingly, both studies included Fabry patients with normal renal function as well as patients with mild and moderate renal impairment, but neither study included patients with severe renal impairment.
Thus, two Fabry patients with renal impairment were evaluated. One patient (P1) had moderate renal impairment, while the other patient (P2) had severe renal impairment. […] The comparison with the results from the FACETS study allows for comparison of PK in the Fabry population with mostly normal, but some mild and a few moderately impaired Fabry patients. None had severe renal impairment because these patients were excluded from the study.

[5] = Highest recorded migalastat exposure in a Fabry patient after a single dose of 450 mg; assay type: in vivo, human; conditions: single dose of 450 mg
Text: FIGS. 2A-D show the mean simulation plots for each regimen.

[6] = Severe RI Fabry patient 2004-5029 (P3), CLcr 21, 5/17, Q4D regimen
[7] = human, plasma, Severe RI Fabry patient 2004-5029 (P3), CLcr 21, 5/17, Q4D regimen

Question: What does the source list for `OC[C@H]1NC[C@H](O)[C@@H](O)[C@H]1O` [migalastat, (2R,3S,4R,55)-2-(hydroxymethyl) piperdine-3,4,5-triol]?
Answer: Plasma Migalastat Conc ([1]; Fabry patient P3, May ′17 (Q4D), 0 h): BLQ; CL/F [1, 6]: 4.67 L/h; Frel [1, 6]: 2.6; concentration at 0 h ([1]; human, plasma, Plasma Migalastat Conc, Fabry patient P3, Aug ′15, 0 h): 36.4 ng/mL; concentration at 3 h ([1]; human, plasma, Plasma Migalastat Conc, Fabry patient P3, Aug ′15, 3 h): 2160 ng/mL; concentration at 24 h ([1]; human, plasma, Plasma Migalastat Conc, Fabry patient P3, Aug ′15, 24 h): 211 ng/mL; concentration at 48 h ([1]; human, plasma, Plasma Migalastat Conc, Fabry patient P3, Aug ′15, 48 h): 62.4 ng/mL; concentration at 48 h ([1]; human, plasma, Plasma Migalastat Conc, Fabry patient P3, Aug ′17 (Q4D), 48 h): 130 ng/mL; concentration at 96 h ([1]; human, plasma, Plasma Migalastat Conc, Fabry patient P3, Aug ′17 (Q4D), 96 h): 61.3 ng/mL; concentration at 0 h ([1]; human, plasma, Plasma Migalastat Conc, Fabry patient P3, Feb ′15, 0 h): 19.9 ng/mL; concentration at 3 h ([1]; human, plasma, Plasma Migalastat Conc, Fabry patient P3, Feb ′15, 3 h): 1620 ng/mL; concentration at 24 h ([1]; human, plasma, Plasma Migalastat Conc, Fabry patient P3, Feb ′15, 24 h): 168 ng/mL; concentration at 48 h ([1]; human, plasma, Plasma Migalastat Conc, Fabry patient P3, Feb ′15, 48 h): 41.8 ng/mL; concentration at 0 h ([1]; human, plasma, Plasma Migalastat Conc, Fabry patient P3, Mar ′11, 0 h): 38.1 ng/mL; concentration at 3 h ([1]; human, plasma, Plasma Migalastat Conc, Fabry patient P3, Mar ′11, 3 h): 1560 ng/mL; concentration at 4 h ([1]; human, plasma, Plasma Migalastat Conc, Fabry patient P3, Mar ′11, 4 h): 1570 ng/mL; concentration at 8 h ([1]; human, plasma, Plasma Migalastat Conc, Fabry patient P3, Mar ′11, 8 h): 802 ng/mL; concentration at 3 h ([1]; human, plasma, Plasma Migalastat Conc, Fabry patient P3, May ′17 (Q4D), 3 h): 2110 ng/mL; concentration at 4 h ([1]; human, plasma, Plasma Migalastat Conc, Fabry patient P3, May ′17 (Q4D), 4 h): 1970 ng/mL; concentration at 8 h ([1]; human, plasma, Plasma Migalastat Conc, Fabry patient P3, May ′17 (Q4D), 8 h): 1380 ng/mL; concentration at 24 h ([1]; human, plasma, Plasma Migalastat Conc, Fabry patient P3, May ′17 (Q4D), 24 h): 358 ng/mL; concentration at 48 h ([1]; human, plasma, Plasma Migalastat Conc, Fabry patient P3, May ′17 (Q4D), 48 h): 77.4 ng/mL; concentration at 96 h ([1]; human, plasma, Plasma Migalastat Conc, Fabry patient P3, May ′17 (Q4D), 96 h): 18.4 ng/mL; concentration at 48 h ([1]; human, plasma, Plasma Migalastat Conc, Fabry patient P3, Nov ′17 (Q4D), 48 h): 401 ng/mL; concentration at 96 h ([1]; human, plasma, Plasma Migalastat Conc, Fabry patient P3, Nov ′17 (Q4D), 96 h): 86.2 ng/mL; concentration at 48 h ([1]; human, plasma, Severe RI Fabry patient 2004-5029 (P3), CLcr 15, 11/17, Q4D regimen, read-out: C48 h): 401 ng/mL; concentration at 96 h ([1]; human, plasma, Severe RI Fabry patient 2004-5029 (P3), CLcr 15, 11/17, Q4D regimen, read-out: C96 h): 86.2 ng/mL; concentration at 48 h ([1]; human, plasma, Severe RI Fabry patient 2004-5029 (P3), CLcr 19, 8/17, Q4D regimen, read-out: C48 h): 130 ng/mL; concentration at 96 h ([1]; human, plasma, Severe RI Fabry patient 2004-5029 (P3), CLcr 19, 8/17, Q4D regimen, read-out: C96 h): 61.3 ng/mL; AUC(0-inf) [1, 7]: 32100 ng·h/mL; AUC(0-t) [1, 7]: 31900 ng·h/mL; Cmax [1, 7]: 2250 ng/mL; half-life [1, 7]: 13.2 h; tmax [1, 7]: 2 h; concentration at 48 h ([1]; human, plasma, Severe RI Fabry patient 2004-5029 (P3), CLcr 21, 5/17, Q4D regimen, read-out: C48 h): 77.4 ng/mL; concentration at 96 h ([1]; human, plasma, Severe RI Fabry patient 2004-5029 (P3), CLcr 21, 5/17, Q4D regimen, read-out: C96 h): 18.4 ng/mL; RacPPK ([2]; Geometric Mean of the 11 subjects): 4.96; RacPPK ([2]; individual subjects, Moderate (≥30-≤35) group): 3.75 and 4.36 and 2.06; RacPPK ([2]; individual subjects, Severe (<30) group): 8.81 and 5.59 and 5.02 and 6.74 and 6.23 and 6.91 and 3.62 and 5.17; accumulation of plasma migalastat ([3]; multiple ascending dose studies): only minimal accumulation; Mean Cmax and AUC0-t values versus dose ([3]; oral doses from 75 mg to 1250 mg): increased in a dose-proportional manner; Mean percent of the dose recovered in urine ([3]; 25 mg): 32.2%; Mean percent of the dose recovered in urine ([3]; 75 mg): 43.0%; Mean percent of the dose recovered in urine ([3]; 225 mg): 49.3%; Mean percent of the dose recovered in urine ([3]; 675 mg): 48.5%; time to maximum concentrations ([3]; single-dose studies, oral, healthy volunteers and Fabry patients with normal to mildly impaired renal function (range, 1 to 6 hrs)): approximately 3 hours; Comparison to FACETS PPK (migalastat concentration) ([4]; 3 Hrs Post, (coefficient of variation)): 1180 (31.0%); Comparison to FACETS PPK (migalastat concentration) ([4]; 48 Hrs Post): 8.70; Comparison to FACETS PPK (migalastat concentration) ([4]; 48 h): 8.70; Comparison to FACETS PPK (migalastat concentration) ([4]; Pre-dose (0 h)): 8.70; concentration at 48 h ([4]; human, plasma, 150 mg, FACETS population PK, 150 mg QOD, read-out: PPK Cmin): 8.7 ng/mL; AUC(0-t) ([4]; human, plasma, 150 mg, 011 PPK (CLcr ≥30-≥90 mL/min), N 62, QOD regimen, read-out: AUC0-t, Geometric mean): 9030 ng·h/mL; concentration at 48 h ([4]; human, plasma, 150 mg, 011 PPK (CLcr ≥30-≥90 mL/min), N 62, QOD regimen, read-out: C48 h, Mean): 7.54 ng/mL; Cmax ([4]; human, plasma, 150 mg, 011 PPK (CLcr ≥30-≥90 mL/min), N 62, QOD regimen, read-out: Cmax, Geometric mean (CV %)): 1180 ng/mL; half-life ([4]; human, plasma, 150 mg, 011 PPK (CLcr ≥30-≥90 mL/min), N 62, QOD regimen, read-out: t1/2, Mean (converted)): 20.6 h; AUC ([4]; human, plasma, 150 mg, reference AUC of the 011 PK model, the same value printed on every subject line): 9520 ng·h/mL; highest exposure of migalastat in a Fabry patient [5]: 53035 ng·h/mL
